Measurements taken from patent US10383948B2, “Anti-cMet antibody drug conjugates and methods for their use” (AbbVie Inc., priority 2016, dated 2019).

Legend:
[1] = tested on: SW48; test: Cytotoxicity assay (CellTiter-Glo, 6 days); format: cell-based, human; conditions: SW48 colorectal cancer; relative to untreated control at ≤1 μg/mL in a six day proliferation
Procedure: (§1) Tumor cells were plated at 2000-5000 cells/well in 180 μL growth medium containing 10% FBS in 96-well plates, and cultured at 37° C. in a humidified incubator with 5% C02. The following day, titrations of antibodies or ADCs in 20 μL were added and cells were incubated for 6 days. Cell viability was determined using a CellTiter-Glo Luminescent Cell Viability Assay (Promega) according to the manufacturer's instructions. A non-binding, irrelevant negative control ADC conjugated to MMAE was also included in all assays to confirm that cell killing was antigen dependent.
as §1, with “of” for “of antibodies or”, “antigen-dependent.” for “antigen dependent.”

[2] = tested on: NCI-H1650; test: Cytotoxicity assay (CellTiter-Glo, 6 days); format: cell-based, human; conditions: NCI-H1650 lung cancer; relative to untreated control at ≤1 μg/mL in a six day proliferation
Procedure: as §1
as §1, with “of” for “of antibodies or”, “antigen-dependent.” for “antigen dependent.”

[3] = tested on: NCI-H441; test: Cytotoxicity assay (CellTiter-Glo, 6 days); format: cell-based, human; conditions: NCI-H441 lung cancer; relative to untreated control at ≤1 μg/mL in a six day proliferation
Procedure: as §1
as §1, with “of” for “of antibodies or”, “antigen-dependent.” for “antigen dependent.”

[4] = tested on: NCI-H1573; test: Cytotoxicity assay (CellTiter-Glo, 6 days); format: cell-based, human; conditions: NCI-H1573 lung cancer
Procedure: as §1
as §1, with “of” for “of antibodies or”, “antigen-dependent.” for “antigen dependent.”

[5] = tested on: EBC-1; test: Cytotoxicity assay (CellTiter-Glo, 6 days); format: cell-based, human; conditions: EBC-1 lung cancer; relative to untreated control at ≤1 μg/mL in a six day proliferation
Procedure: as §1
as §1, with “of” for “of antibodies or”, “antigen-dependent.” for “antigen dependent.”

[6] = tested on: Hs746T; test: Cytotoxicity assay (CellTiter-Glo, 6 days); format: cell-based, human
Procedure: as §1
as §1, with “of” for “of antibodies or”, “antigen-dependent.” for “antigen dependent.”

[7] = tested on: NCI-H441 lung cancer xenografts; test: NCI-H441 xenograft efficacy; format: in vivo, mice; conditions: both every four days, six doses; dose-dependent; FIG. 11B
Excerpt: Food and water were available ad libitum.
Each experimental group included 8-10 animals.

[8] = tested on: NHDF (dermal fibroblasts); test: Cytotoxicity assay (CellTiter-Glo, 6 days); format: cell-based; conditions: NHDF (dermal fibroblasts) non-tumor; relative to untreated control at ≤1 μg/mL in a six day proliferation
Procedure: as §1

[9] = tested on: HUVEC (vascular endothelial); test: Cytotoxicity assay (CellTiter-Glo, 6 days); format: cell-based; conditions: HUVEC (vascular endothelial) non-tumor; relative to untreated control at ≤1 μg/mL in a six day proliferation
Procedure: as §1

[10] = tested on: HMEC (mammary epithelial); test: Cytotoxicity assay (CellTiter-Glo, 6 days); format: cell-based; conditions: HMEC (mammary epithelial) non-tumor; relative to untreated control at ≤1 μg/mL in a six day proliferation
Procedure: as §1

[11] = tested on: PrEC (prostate epithelial); test: Cytotoxicity assay (CellTiter-Glo, 6 days); format: cell-based; conditions: PrEC (prostate epithelial) non-tumor; relative to untreated control at ≤1 μg/mL in a six day proliferation
Procedure: as §1

[12] = tested on: NSCLC squamous cell carcinoma; test: Phase 1 overall response versus H score; format: in vivo, human; conditions: three patients, 2.7 mg/kg once every 3 weeks, IHC scores between 150 to 224
Excerpt: (§2) The IHC score was obtained using the protocol described in Example 17.

[13] = tested on: NSCLC adenocarcinoma; test: Phase 1 overall response versus H score; format: in vivo, human; conditions: IHC scores of 225 or greater
Excerpt: as §2

[14] = tested on: CTG-0440 colorectal PDX; test: Patient-derived xenograft, tumor growth delay; format: in vivo, NSG mice; conditions: PDX CTG-0440 (Colorectal); every seven days, six doses; median time to 1 cm^3 vs control
Procedure: (§3) Tumor fragments of 3 to 5 mm^3 at passage 3 (P3) were implanted subcutaneously in the right rear flank of NSG mice (The Jackson Laboratory) with a trochar. ABBV-399 and ABT-700 PBD were administered every seven days for a total of six doses. […] For all groups, tumor volumes were plotted only for the duration that allowed the full set of animal to remain on study. If animals had to be taken off study, the remaining animals were monitored for tumor growth until they reached defined end-points.

[15] = tested on: CTG-0406 colorectal PDX; test: Patient-derived xenograft, tumor growth delay; format: in vivo, NSG mice; conditions: PDX CTG-0406 (Colorectal); every seven days, six doses; median time to 1 cm^3 vs control
Procedure: as §3

[16] = tested on: CTG-0164 NSCL PDX; test: Patient-derived xenograft, tumor growth delay; format: in vivo, NSG mice; conditions: PDX CTG-0164 (NSCL); every seven days, six doses; median time to 1 cm^3 vs control
Procedure: as §3

[17] = tested on: CTG-0363 NSCL PDX; test: Patient-derived xenograft, tumor growth delay; format: in vivo, NSG mice; conditions: PDX CTG-0363 (NSCL); every seven days, six doses; median time to 1 cm^3 vs control
Procedure: as §3

[18] = tested on: CTG-0115 colorectal PDX; test: Patient-derived xenograft, tumor growth delay; format: in vivo, NSG mice; conditions: PDX CTG-0115 (Colorectal); every seven days, six doses; median time to 1 cm^3 vs control
Procedure: as §3

[19] = tested on: CTG-0159 NSCL PDX; test: Patient-derived xenograft, tumor growth delay; format: in vivo, NSG mice; conditions: PDX CTG-0159 (NSCL); every seven days, six doses; median time to 1 cm^3 vs control
Procedure: as §3

[20] = tested on: CTG-0165 NSCL PDX; test: Patient-derived xenograft, tumor growth delay; format: in vivo, NSG mice; conditions: PDX CTG-0165 (NSCL); every seven days, six doses; median time to 1 cm^3 vs control
Procedure: as §3

[21] = tested on: CTG-0062 colorectal PDX; test: Patient-derived xenograft, tumor growth delay; format: in vivo, NSG mice; conditions: PDX CTG-0062 (Colorectal); every seven days, six doses; median time to 1 cm^3 vs control
Procedure: as §3

[22] = tested on: CTG-0170 NSCL PDX; test: Patient-derived xenograft, tumor growth delay; format: in vivo, NSG mice; conditions: PDX CTG-0170 (NSCL); every seven days, six doses; median time to 1 cm^3 vs control
Procedure: as §3

For “ABBV-399: ADC comprised of the cMet targeting antibody ABT-700 conjugated to MMAE through a valine citrulline (vc) linker”, the “Maximal Killing” value [1] was 0%, the “Maximal Killing” value [2] was 13% and the “Maximal Killing” value [3] was 56%. The “Maximal Killing” value ([4]; relative to untreated control at ≤1 μg/mL in a six day proliferation) was 18%, the IC50 ([4]; read-out: ABBV-399 IC50, cell proliferation assay, Table 7B) was 18 nM and the “Maximal Killing” value [5] was 96%. For the same substance, the “Maximal Killing” value ([6]; Hs746T gastric cancer, relative to untreated control at ≤1 μg/mL in a six day proliferation) was 87%, the “inhibition of proliferation” value ([6]; MET-amplified Hs746T gastric cancer cells, FIG. 4) was “inhibited proliferation” and the “in vivo activity, comparison” value [7] was “more active than ABT-700 alone”. For the same substance, the “Maximal Killing” value [8] was 0%, the “Maximal Killing” value [9] was 6% and the “Maximal Killing” value [10] was 0%. For the same substance, the “Maximal Killing” value [11] was 0%, the “response” value [12] was “partial responses” and the “response” value ([13]; four patients, 2.7 mg/kg Q3W and erlotinib) was “partial responses”. The “response” value ([13]; two patients, once every two weeks) was “either a partial response or a complete response”, the “TGD (%) tumor growth delay” value [14] was 12% and the “TGD (%) tumor growth delay” value [15] was 0%. For the same substance, the “TGD (%) tumor growth delay” value [16] was 25%, the “TGD (%) tumor growth delay” value [17] was 0% and the “TGD (%) tumor growth delay” value [18] was 114%. For the same substance, the “TGD (%) tumor growth delay” value [19] was 288%, the “TGD (%) tumor growth delay” value [20] was 170% and the “TGD (%) tumor growth delay” value [21] was 0%. The “TGD (%) tumor growth delay” value [22] was 336%.
